Assay results as given in patent US9642875B2, “Compounds and their effects on appetite control and insulin sensitivity” (priority 2012, dated 2017).
Entries after “also recorded” stand apart in the source; their conditions may differ. Where two headings read alike, the source gives them in different places.

What was measured:
[1] = format: in vivo, human; settings: 10 g, 24 hour pooled urine, n=5
Protocol: The mean (±SEM) age, weight and body mass index (BMI) was 32±4 years, 75.0±4.0 kg and 25.0±1.3 kg/m^2, respectively.
(§1) The inclusion criteria for the investigation were a BMI of 20 to 35 kg/m^2 and 21 to 65 years of age.
Subjects were studied on four occasions one week apart. […] Cumulative ^13CO2 excretion was also calculated. Blood was collected serially throughout the study.
Plasma was collected at −15, 0, 15, 30, 60, 90, 120, 180, 240, 300, 360 min for analysis of ^13C propionate enrichment by GC-combustion-IRMS (GC-C-IRMS). Acetate ^13C enrichment was also measured in the same analysis as a control for dietary influence on SCFA ^13C enrichment and for evidence of inter-conversion between propionate and acetate. Data were expressed as δ^13C (per mil or ‰) which represents the change in the measured ratio in parts per thousand from the internationally accepted standard carbon Vienna Pee Dee Belemnite (VPDB). Urine was analyzed for ^13C propionate by GC-C-IRMS. Urine was collected and pooled from just before consumption of the propionate ester for a period of 24 hours. Two 25 ml aliquots were collected and stored at −20° C. until analysis. Isotopic enrichment was expressed as δ^13C (‰). SCFA concentrations (mmol/L) were measured relative to an internal standard (3-methyl valerate).

[2] = system: Bifidobacterium spp (Bif164); assay: faecal batch culture fermentation with fluorescent in situ hybridisation; format: cell-based
Protocol: (§2) Faecal samples were obtained from three healthy human volunteers (one female and two males; age 30-50 years; BMI 25-31). Volunteers were excluded if they suffered from any gastrointestinal disorder (e.g. ulcerative colitis, Crohn's disease, irritable bowel syndrome, peptic ulcers and cancer) and/or had taken antibiotics in the six months preceding sample donation. Samples were kept under anaerobic conditions (10% H2, 10% CO2 and 80% N2) and used within a maximum of 30 minutes following collection. Samples were diluted 1/10 w/w in anaerobic PBS (0.1 mol/1 phosphate buffer solution, pH 7.4) and homogenised in a stomacher (Stomacher 400, Seward, West Sussex, UK) for 2 minutes at normal speed.
Sterile batch culture fermenters (150 ml working volume) were set up in parallel and aseptically filled with 135 ml pre-reduced, sterile basal culture medium (peptone water 2 g/1 (Oxoid), yeast extract 2 g/1 (Oxoid, Basingstoke, UK), NaCl 0.1 g/l, K2HPO4 0.04 g/l, KH2PO4 0.04 g/l, MgSO4.7H2O 0.01 g/l, CaCl2.6H2O 0.01, NaHCO3 2 g/l, Tween 80 2 ml (BDH, Poole, UK), haemin 0.05 g/1, vitamin K1 10 cysteine.HCl 0.5 g/1, bile salts 0.5 g/1). The fermenters were gassed overnight with O2 free N2. Propionate inulin ester and inulin control substrates ( 1/10 w/v) were added to their respective fermenters just prior to the addition of the faecal slurry. […]

[3] = From the text: Healthy men and women aged 40-65 years, with a BMI of 25-40 kg/m^2 were recruited from the general public. Potential subjects were excluded if they had clinically significant illnesses (including type 1 or type 2 diabetes), were taking medication known to affect appetite and/or body weight, a weight loss of 3 kg or greater in the preceding two months, smoking, substance abuse, psychiatric illness, restrained eating (Dutch eating behavior questionnaire: male score >2.25; female score >2.80), and any abnormalities detected on physical examination, electrocardiography, or screening blood tests (measurement of complete blood count, electrolytes, fasting glucose, thyroid function and liver function). Women were ineligible if they were pregnant or breast-feeding. […] The study was carried out in accordance with the Declaration of Helsinki.
The study was conducted in a randomized, double-blind, placebo-controlled, parallel design. Two-day study visits were required at baseline (week 0) and after 24 weeks of dietary supplementation. On the day prior to each study visit, subjects were asked to consume a standard evening meal, fast overnight from 22:00 and to avoid strenuous physical activity and alcohol. All study visits commenced between 08:00 and 09:00. […] The dietary supplement was supplied to subjects in ready-to-use sachets and they were instructed to mix the contents into their normal diet once a day during the 24 week treatment period. All subjects were instructed to maintain their usual dietary and activity habits during the intervention period. […] After 8 and 16 weeks of the intervention period, subjects were invited to attend follow-up visits to record body weight and monitor compliance and gastrointestinal side-effects. After 24 weeks, measurements taken at baseline were repeated. Subjects returned all their used and unused sachets to estimate compliance. Symptom diary was also collected over the period of the study.
At study visits, a cannula was inserted into an antecubital vein and baseline blood samples were collected at −10 and 0 min to assess plasma concentrations of glucose, insulin, PYY and GLP-1. Following the 0 min sample, subjects were served a standardized breakfast (398 kcal; 71.2 g CHO, 7.9 g fat, 10.3 g protein). […] Postprandial blood samples were taken at 15, 30, 60, 90, 120, 180, 240 and 300 min and collected into heparin-coated tubes containing 0.2 ml of aprotinin (Bayer, UK). GLP-1- and PYY-like immunoreactivity was measured using specific and sensitive in-house radioimmunoassays. Insulin-like immunoreactivity was measured using an ultra-sensitive human insulin radioimmunoassay (Millipore) and plasma glucose was measured using an Abbott Architect ci8200 analyser (Abbott Diagnostics, USA). At 300 min subjects were offered a buffet lunch with food served in excess and subjects were asked to eat until they were comfortably full. The amount of food was quantified and energy intake calculated. Subjective hunger, satiety, and nausea were monitored with the use of 100 mm visual analog scales (VAS). Subjects were asked to complete the VAS before each blood sample. In addition, breath H2 was measured at 0, 60, 120, 180, 240 and 300 min (Bedfont Scientific, Kent UK) in a subset of each group (9 in the propionate ester group, 8 in the inulin control group).
Body composition was assessed using magnetic resonance imaging (MRI) and spectroscopy (MRS). […] Body weight was measured in all subjects to the nearest 0.1 kg (TBF-300, Tanita) and taken while subjects were wearing light clothing.

[4] = format: in vivo, human
Protocol: Twenty healthy subjects (15 males and 5 females) were recruited for the food intake investigation. The mean (±SEM) age, weight and body mass index (BMI) was 31±2 years, 75.0±3.0 kg and 25.4±0.8 kg/m^2, respectively.
as §1
The study was performed in a randomized, double-blind, crossover manner, with each subject studied on two occasions >4 days apart. […] The amount of food was quantified preprandially and postprandially, and energy intake was calculated. […] In addition, VAS were also completed to assess the palatability of the standardized breakfast.
Differences in energy intake and incremental area under the curve (iAUC) for plasma hormone levels and VAS between trials were assessed using Paired Student's t tests. […] Significant effects were followed up by post hoc comparisons (Dunnett). P values<0.05 were considered statistically significant. Data are presented as means±SEM.

[5] = system: Atopobium cluster (Ato291); assay: faecal batch culture fermentation with fluorescent in situ hybridisation; format: cell-based; settings: between 10 and 34 h
Protocol: as §2
(§3) Sterile batch culture fermenters (150 ml working volume) were set up in parallel and aseptically filled with 135 ml pre-reduced, sterile basal culture medium (peptone water 2 g/1 (Oxoid), yeast extract 2 g/1 (Oxoid, Basingstoke, UK), NaCl 0.1 g/l, K2HPO4 0.04 g/l, KH2PO4 0.04 g/l, MgSO4.7H2O 0.01 g/l, CaCl2.6H2O 0.01, NaHCO3 2 g/l, Tween 80 2 ml (BDH, Poole, UK), haemin 0.05 g/1, vitamin K1 10 cysteine.HCl 0.5 g/1, bile salts 0.5 g/1). The fermenters were gassed overnight with O2 free N2. […] A substrate-free vessel was set up for each volunteer as the negative control.

[6] = system: Bacteroides/Prevotella (Bac303); assay: as above; format: cell-based; settings: all sampling points
Protocol: as §2, §3

[7] = 24 weeks vs baseline, fasting blood, listed as control
[8] = 10 g, 0-420 minute post oral administration, 20 subjects

## inulin
[1]
  urine 13C propionate enrichment δ13C: −23.3±1.8 ‰
[2]; all time points (10, 24, 34, 48 h)
  Bif164 labelled cells compared to baseline: significantly increased
[2]; throughout fermentation
  Bif164 levels compared to propionate inulin ester cultures: significantly higher
[3]; 10 g/day, after 24 weeks
  body weight gained: 0.38 ± 0.69 kg
[3]; 24 weeks
  breath hydrogen area under curve: 5000±1480
  fasting breath hydrogen: 19.1±7 ppm
  fasting glucose, insulin, HbA1c and triglyceride concentrations: no significant effect
[3]; [7]
  alanine transaminase: significantly reduced; also recorded: significant improvements
  alkaline phosphatase: significantly reduced; also recorded: significant improvements
  total cholesterol: significantly reduced; also recorded: significant improvements
[3]; 24 weeks, number of subjects
  subjects with substantial weight gain (≧5% baseline weight): 4 of 24
  subjects with weight gain ≧3% baseline weight: 6 of 24
[3]; 24 weeks, p=0.002
  ratio of internal adipose tissue:subcutaneous adipose tissue, within group: significantly increased
[3]; 24 weeks, p=0.049
  internal adipose tissue, within group: significantly increased
[3]; 24 weeks, proportion
  subjects with substantial weight gain (≧5% baseline weight): 17%
  subjects with weight gain ≧3% baseline weight: 25%
[3]; baseline
  breath hydrogen area under curve: 2355±800
  fasting breath hydrogen: 9±3 ppm
[3]; baseline (week 0)
  GLP-1 ΔAUC0-300 min: 3441 ± 843 pmol/L
  food intake at buffet lunch: 678 ± 69 kcal
  insulin response AUC0-300 min: 9285±882 μU/mL
  plasma PYY ΔAUC0-300 min: 962 ± 869 pmol/L
[3]; baseline (week 0), standardized breakfast
  glycemic response AUC0-300 min: 1600 ± 51 pmol/L
[3]; postprandial period, within group
  plasma PYY and GLP-1 release, week 24 vs baseline: unaffected
[3]; week 24
  GLP-1 ΔAUC0-300 min: 2278 ± 1000 pmol/L
  bloating and flatulence (side effect profile): significant increase
  food intake at buffet lunch: 651 ± 64 kcal
  insulin response AUC0-300 min: 8781±731 μU/mL
  plasma PYY ΔAUC0-300 min: 656 ± 880 pmol/L
[3]; week 24, standardized breakfast
  glycemic response AUC0-300 min: 1691 ± 54 pmol/L
[3]; week 24 vs baseline
  reduction of food intake: 4.0%
[3]; within group
  insulin response, week 24 vs baseline: not significantly different
[3]; within group, listed as control
  postprandial glucose (glycemic) response, week 24 vs baseline: significantly greater; also recorded: significant deterioration
[4]; [8]
  fullness ratings, average iAUC: 26.6±2.9
  hunger ratings, average iAUC: −24.3±4.7
  pleasantness ratings, average iAUC: −26.6±4.6
  prospective food intake ratings, average iAUC: −19.9±3.6
  sickness ratings, average iAUC: −1.6±1.4
[4]; 10 g, whole meal test
  glucose levels, average iAUC: 0.28±0.12
  insulin levels, average iAUC: 32.5±4.7
[4]; 7 hours after intake of 10 g supplement, 20 subjects, mean±SEM
  food intake during standardised ad libitum buffet meal: 1175 ± 104 kcal
[5]
  Ato291 labelled cells compared to baseline: increased significantly
[6]
  Bac303 labelled cells compared to baseline: significant increases
